# Assays:
# MaMATE11 = system: T1, MaMATE11; experiment: uptake into yeast microsomal vesicles, HPLC, Lineweaver-Burk; assay type: biochemical, Muscari aucheri; details: transport; 5 mM MgATP, 25 mM Tris-MES pH 8.0, 50 mM KCl, 25 °C, 20 min; minus-ATP subtracted
# T1 construct: full-length cDNA in pYES2, expressed in Saccharomyces cerevisiae BY4741; microsomal vesicles; 441 residues; 10 predicted transmembrane segments
# MaMATE14 = system: T2, MaMATE14; experiment: as above; assay type: biochemical, Muscari aucheri; details: transport; 5 mM MgATP, 25 mM Tris-MES pH 8.0, 50 mM KCl, 25 °C, 20 min; minus-ATP subtracted
# T2 construct: full-length cDNA in pYES2, expressed in Saccharomyces cerevisiae BY4741; microsomal vesicles; 510 residues; 12 predicted transmembrane segments
Km (MaMATE11) [µM],Km (MaMATE14) [µM],Structure (SMILES)
27,45.3,"OC[C@H]1O[C@@H](Oc2cc3c(O[C@@H]4O[C@H](CO)[C@@H](O)[C@H](O)[C@H]4O)cc(O)cc3[o+]c2-c2ccc(O)c(O)c2)[C@H](O)[C@@H](O)[C@@H]1O [cyanidin-3,5-di-O-glucoside]"
57.4,43.8,Oc1ccc([C@H]2Oc3cc(O)cc(O)c3C[C@H]2O)cc1 [(−)-epiafzelechin]
57.5,61.4,OC[C@H]1O[C@@H](Oc2cc3c(O)cc(O)cc3[o+]c2-c2ccc(O)c(O)c2)[C@H](O)[C@@H](O)[C@@H]1O [cyanidin-3-O-glucoside]

Structure (SMILES),Km (MaMATE11) [µM],Km (MaMATE14) [µM]
O=c1c(O)c(-c2ccc(O)cc2)oc2cc(O[C@@H]3O[C@H](CO)[C@@H](O)[C@H](O)[C@H]3O)cc(O)c12 [kaempferol 7-O-glucoside],60.2,57.4

# From paper PMC12863215, “The vacuolar transporters MaMATE11 and MaMATE14 affect blue flower coloration in grape hyacinth (Muscari)” (Horticulture Research, 2025)
